Source: publication PMC6269755, “In Vitro Antiprotozoal Activity of Triterpenoid Constituents of Kleinia odora Growing in Saudi Arabia” (Molecules, 2013)
Where two headings read alike, the source gives them in different places.

What was measured:
[1] = tested on: Chloroquine-resistant P. falciparum K 1-strain; assay: Antiplasmodial activity, Malstat (pLDH) assay; format: cell-based, Plasmodium falciparum; details: for IC50: 72 h, read-out: P. falciparum IC50; for P. falciparum SI: selectivity index vs MRC-5 cytotoxicity
Protocol: (§1) The integrated panel of microbial screens and standard screening methodologies were adopted as previously described. All assays were performed in triplicate at the Laboratory of Microbiology, Parasitology and Hygiene at the University of Antwerp (Belgium). […] Selectivity of activity was assessed by simultaneous evaluation of cytotoxicity on a fibroblast (MRC-5) cell line.
Chloroquine-resistant P. falciparum K 1-strain was cultured in human erythrocytes O^+ at 37 °C under a low oxygen atmosphere (3% O2, 4% CO2, and 93% N2) in RPMI-1640, supplemented with 10% human serum. Infected human red blood cells (200 μL, 1% parasitaemia, 2% haematocrit) were added to each well and incubated for 72 h. After incubation, test plates were frozen at −20 °C. Parasite multiplication was measured using the Malstat assay, a colorimetric method based on the reduction of 3-acetyl pyridine adenine dinucleotide (APAD) by parasite-specific lactate-dehydrogenase (pLDH).

[2] = tested on: L. infantum MHOM/MA(BE)/67 amastigotes; assay: Antileishmanial activity, intracellular amastigotes in primary peritoneal mouse macrophages; format: cell-based, Leishmania infantum; details: for IC50: pure compounds, intracellular amastigotes, 5 days; for L. infantum SI: selectivity index vs MRC-5 cytotoxicity
Protocol: The integrated panel of microbial screens and standard screening methodologies were adopted as previously described. All assays were performed in triplicate at the Laboratory of Microbiology, Parasitology and Hygiene at the University of Antwerp (Belgium). […] Selectivity of activity was assessed by simultaneous evaluation of cytotoxicity on a fibroblast (MRC-5) cell line. […] L. infantum MHOM/MA(BE)/67 amastigotes were collected from the spleen of an infected donor hamster and used to infect primary peritoneal mouse macrophages. To determine in vitro antileishmanial activity, 3 × 10^4 macrophages were seeded in each well of a 96-well plate. After 2 days outgrowth, 5 × 10^5 amastigotes/well, were added and incubated for 2 h at 37 °C. Pre-diluted plant extracts were subsequently added and the plates were further incubated for 5 days at 37 °C and 5% CO2. Parasite burdens (mean number of amastigotes/macrophage) were microscopically assessed on 500 cells after Giemsa staining of the […] expressed as a percentage of the blank controls without plant extract.

[3] = tested on: T. cruzi Tulahuen CL2 (benznidazole-sensitive); assay: Antitrypanosomal activity, T. cruzi on MRC-5 cells; format: cell-based, Trypanosoma cruzi; details: for IC50: pure compounds, 7 days; for T. cruzi SI: selectivity index vs MRC-5 cytotoxicity
Protocol: as §1
(§2) Trypanosoma brucei Squib-427 strain (suramin-sensitive) was cultured at 37 °C and 5% CO2 in Hirumi-9 medium, supplemented with 10% fetal calf serum (FCS). About 1.5 × 10^4 trypomastigotes/well were added to each well and parasite growth was assessed after 72 h at 37 °C by adding resazurin [35]. For Chagas disease, T. cruzi Tulahuen CL2 (benznidazole-sensitive) was maintained on MRC-5 cells in minimal essential medium (MEM) supplemented with 20 mM L-glutamine, 16.5 mM sodium hydrogen carbonate and 5% FCS. In the assay, 4 × 10^3 MRC-5 cells and 4 × 10^4 parasites were added to each well and after incubation at 37 °C for 7 days, Parasite growth was assessed by adding the […]. The color reaction was read at 540 nm after 4 h and absorbance values were expressed as a percentage of the blank controls.

[4] = tested on: Trypanosoma brucei Squib-427 strain (suramin-sensitive); assay: Antitrypanosomal activity, T. brucei trypomastigotes, resazurin; format: cell-based; details: for IC50: 72 h, pure compounds; for T. brucei SI: selectivity index vs MRC-5 cytotoxicity
Protocol: as §1, §2

[5] = Cytotoxicity against MRC-5 cells, resazurin; format: cell-based; details: human, MRC-5 SV2 fibroblast cells, pure compounds
Protocol: as §1
MRC-5 SV2 cells were cultivated in MEM, supplemented with L-glutamine (20 mM), 16.5 mM sodium hydrogen carbonate and 5% FCS. For the assay, 10^4 MRC-5 cells/well were seeded onto the test plates containing the pre-diluted sample and incubated at 37 °C and 5% CO2 for 72 h. Cell viability was assessed fluorimetrically after 4 h of addition of resazurin. Fluorescence was measured (excitation 550 nm, emission 590 nm) and the results were expressed as % reduction in cell viability compared to control.

L. donovani = details: cited from earlier work
[6] = tested on: peripheral blood mononuclear cells; design: method as in PMID 22468852; details: ref 31; cited from earlier work
T. brucei = tested on: T. brucei; design: method as in PMID 21782916, PMID 17637068; details: ref 24, 25, cited from earlier work
T. cruzi = tested on: T. cruzi; design: method as in PMID 12802734; details: ref 26; cited from earlier work
P. falciparum = details: cited from earlier work; for IC50: converted value in brackets, read-out: antiplasmodial IC50
[7] = Plasmodium falciparum, pure compounds, K1 strain
[8] = Leishmania infantum, Macrophage, 120 h
[9] = Trypanosoma cruzi, TULAHUEN, MRC5, 168 h
[10] = at the highest concentration tested (64 µg/mL)

Compound	IC50 [1, 7]	IC50 [2, 8]	L. infantum SI [2]	IC50 [3, 9]	T. cruzi SI [3]	IC50 ([4]; Trypanosoma brucei)	T. brucei SI [4]	IC50 at 72 h [5]	further results
C[C@H]1[C@H](C)CC[C@@]2(C)[C@@H]1C1=CC[C@@H]3[C@@]4(C)CC[C@H](O)C(C)(C)[C@@H]4CC[C@@]3(C)[C@]1(C)C[C@@H]2O [Cmpd. 4, urs-12-ene-3β,16β-diol]	9.3 to 9.9 µM	9.3 to 9.9 µM	>6.9	9.3 to 9.9 µM	>6.5	2.3 ± 0.4 µM	>27.8	> 64 µM	IC50 ([1]; pure compounds, K1 strain): 9.7 ± 3.2 µM; P. falciparum SI [1]: >6.6; P. falciparum SI ([1]; listed as Brein (4)): > 6.5; IC50 [2]: 9.3 ± 2.2 µM; L. infantum SI ([2]; listed as Brein (4)): > 6.5; IC50 [3]: 9.9 ± 2.6 µM; T. cruzi SI ([3]; listed as Brein (4)): > 6.5; T. brucei SI ([4]; listed as Brein (4)): > 27.8; melting point: 221 °C
CCN(CC)CCCC(C)Nc1ccnc2cc(Cl)ccc12 (stereo not shown) [Chloroquine, reference compound]									IC50 ([1]; Plasmodium falciparum): 0.3 ± 0.05 µM
C[C@@H]1CC[C@]2(C)CC[C@]3(C)C(=C[C@@H](O)C4[C@@]5(C)CC[C@H](O)C(C)(C)C5CC[C@]43C)C2[C@H]1C (stereo partly drawn) [Cmpd. 5, 3β,11α-Dihydroxyurs-12-ene]	23.9 ± 5.7 µM	3.2 ± 0.9 µM	>20	8.1 ± 1.8 µM	>7.9	7.9 µM	>8.2	> 64 µM	L. infantum SI ([2]; listed as Compound 5): > 20; IC50 [4]: 7.8 ± 1.8 µM
C[C@@H]1CCC23CC[C@]4(C)[C@@](C=CC5[C@@]6(C)CC[C@H](O)C(C)(C)C6CC[C@]54C)(OC2=O)C3[C@H]1C (stereo partly shown) [Cmpd. 6, 3-Hydroxy-13,28-epoxyurs-11-en-28-one]	> 64 µM	> 64 µM		> 64 µM		40.9 ± 8.1 µM		> 64 µM	antiprotozoal activity (P. falciparum) [1, 10]: devoid of any antiprotozoal activity; antiprotozoal activity (L. infantum) [2, 10]: devoid of any antiprotozoal activity; antiprotozoal activity (T. cruzi) [3, 10]: devoid of any antiprotozoal activity; IC50 (L. donovani; ref 31): 192 µM; cytotoxicity towards peripheral blood mononuclear cells [6]: without cytotoxicity
C[C@@H]1CC[C@]2(C)CC[C@]3(C)C(=C[C@@H](O)C4[C@@]5(C)CC[C@H](O)C(C)(C)C5CC[C@]43C)C2[C@H]1C (stereo partly drawn) (hydrate or solvate) [Cmpd. 5, 3β,11α-Dihydroxyurs-12-ene]									melting point: 205 °C
CCCCCCCCCCCCCCCCOP(=O)([O-])OCC[N+](C)(C)C [Miltefosine, reference compound]		10.4 ± 2.1 µM							IC50 (L. donovani; ref 31): 9.31 µM
O=C(Cn1ccnc1[N+](=O)[O-])NCc1ccccc1 [Benznidazole, reference compound]				1.9 ± 0.3 µM					
Cc1ccc(C(=O)Nc2ccc(S(=O)(=O)O)c3cc(S(=O)(=O)O)cc(S(=O)(=O)O)c23)cc1NC(=O)c1cccc(NC(=O)Nc2cccc(C(=O)Nc3cc(C(=O)Nc4ccc(S(=O)(=O)O)c5cc(S(=O)(=O)O)cc(S(=O)(=O)O)c45)ccc3C)c2)c1 [Suramine, reference compound]						0.03 ± 0.01 µM			
C[C@H]1[C@H](C)CC[C@]2(C(=O)O)CC[C@]3(C)C(=CC[C@@H]4[C@@]5(C)CC[C@H](O)C(C)(C)[C@@H]5CC[C@]43C)[C@H]12 [Cmpd. 3, 3β-hydroxy-urs-12-en-28-oic acid]	29.7 ± 5.9 µM	7.4 ± 1.9 µM	1.5	8.8 ± 2.3 µM	1.3	2.2 ± 0.6 µM	5.2	11.4 ± 2.1 µM	P. falciparum SI [1]: <1; IC50 (T. brucei; converted value in brackets): 2200 nM; T. brucei IC50 (T. brucei): 1.0 ± 0.2 µg/mL; IC50 (T. cruzi): 21 µM; IC50 (L. donovani; converted value in brackets, ref 27): 7.6 µM; L. donovani IC50 (L. donovani; ref 27): 3.5 µg/mL; IC50 (P. falciparum; ref 28): 6.8 µM; IC50 (P. falciparum; ref 29): 10.7 µM; antiplasmodial IC50 (P. falciparum; ref 28): 3.1 µg/mL; antiplasmodial IC50 (P. falciparum; ref 29): 4.9 µg/mL
